Laboratory results as given in patent publication US12516293B2, “Reagents and methods with Wnt agonists and bioactive lipids for generating and expanding cardiomyocytes” (The Board of Trustees of the Leland Stanford Junior …, priority 2018, dated 2026).
Blank lines part the entries; values can stand above or below the molecule they belong to.

Columns and labels:
Format in all cases: cell-based, human
[1] = tested on: hiPSC-CMs; assay: Sarcomere alignment and contractility on micropatterns; settings: C59 added to cells previously treated with CHIR (CHIR>C59)
Procedure: Cells were plated on soft substrates with micropatterned proteins on top. After 3-6 days of culture high resolution movies (Sony Microscopy) were recorded for at least 10 individual cells per group and motion velocity analysis was processed digitally. After recordings, cells were fixed and used for immunohistochemistry and confocal imaging. Sarcomere alignment was quantified with Image J software. CM maturation is accompanied by the formation of highly structured sarcomere, bi- or multinucleation, and cell cycle exit (Bassat et al., 2017; Bersell et al., 2009; Senyo et al., 2014; Uygur and Lee, 2016). […] To address this, age-matched hiPSC-CMs exposed to media containing DMSO (CTR) were compared to ones that have undergone 3 passages in media containing 2.0 μM CHIR using various phenotypic assays of CM function. To assess sarcomere alignment, CHIR and CTR hiPSC-CMs on 7:1 aspect ratio micropatterns (Ribeiro et al., 2015) were cultured and immunostained with TnT and sarcomeric actinin antibodies.

[2] = tested on: hiPSC-CMs; assay: Real-time PCR / immunostaining of cardiac gene expression in hiPSC-CMs
Procedure: For quantitative analysis of gene expression, RNA was extracted with a lysis buffer (Qiagen) from hiPSC-CMs and stored at −80° C. Total RNA from each sample was purified from cell lysate using a RNA purification kit (Qiagen). cDNA was made using iScript cDNA synthesis kit (BioRad). Quantitative PCR was performed using a 96-well thermocycler system (Biorad) with SYBR Green substrate (Affymetrix) for 40 cycles. All primers sequences were obtained from the PrimerBank (Massachusetts General Hospital/Harvard Medical School) online database. […] Day 12 hiPSC-CMs were cultured in CHIR continuously for 2 months with serial passaging followed by CHIR withdrawal for an additional month.

[3] = tested on: hiPSC-CMs; assay: ki67/pHH3 proliferation and binucleation of hiPSC-CMs (immunofluorescence); settings: day 12 hiPSC-CMs (P0), 24 hrs treatment
Procedure: Immunohistochemistry was performed with the incubation of primary antibodies overnight followed by 2 hours of incubation with various Alexa fluorescence conjugated secondary antibodies. Images were made with confocal (Zeiss LSM 710) or regular immunofluorescence microscopy (Leica DM IL LED). Primaries used in this study were cardiac troponin T (MS-295, Fisher), Ki67 (ab15580, Abcam), pHH3 (#9701, Cell Signaling), aurora B (ab2254, Abcam), alpha sarcomeric actinin ([…], Sigma-Aldrich), MLC2V (ab48003, Abcam), phospo AKT […] (#9275, Cell Signaling). […] To examine this, the percentage was determined of troponin T (TnT) positive hiPSC-CMs that express the cell cycle marker ki67 or the mitosis marker phospho-histone H3 (pHH3) at each passage after treatment with CHIR or DMSO (CTR) (FIG. 2A-C). […] The short-term (24 hrs) changes were assessed in proliferation rate of day 12 hiPSC-CMs (P0) after treatment with CHIR-, CTR-, or C59, a specific inhibitor of Wnt signaling (FIG. 2I-J).

[4] = tested on: TCF/LEF; assay: TOPFlash TCF/LEF luciferase reporter in day 12 hiPSC-CMs
Procedure: Day 12 hiPSC-CMs were transfected for 48h with a TCF reporter plasmid (TOPflash M50, Addgene) or the mutant reporter plasmid (TOPflash M51, Addgene) and the use of Lipofectamine 3000 (Invitrogen). 72h after transfection cells were treated with various small molecules for 24h. Cells were lysed and mixed with luciferase substrate (Promega) and the firefly luciferase expression was measured with a 96-well micro plate reader (Fisher).

[5] = tested on: hiPSC-CMs; assay: CHIR-mediated hiPSC-CM proliferation with pathway inhibitors
[6] = tested on: hiPSC-CMs; assay: Cell cycle activity in well-differentiated hiPSC-CMs (ki67, pHH3, cell count); settings: 5 μM VPC23019 together with S1P
Procedure: To address this, well-differentiated hiPSC-CMs were generated (e.g. day 30 or later) using chemically-defined protocols (Burridge et al. 2014; Churko et al. 2013; Sharma et al. 2015) (Movie S1) and treated them with S1P/LPA or CHIR or both (FIG. 18A). The presence of S1P/LPA receptors in these cells was first validated (FIG. 21). Immunofluorescence staining was then performed for ki67, a marker of cell cycle activity, and phospho Histone H3 (pHH3), a mitosis marker, in cardiac troponin T (TnT) positive cells.

[7] = tested on: YAP; assay: YAP nuclear accumulation in hiPSC-CMs; settings: day 10 or day 30 hiPSC-CMs
Procedure: Given the well-known role of Hippo/Yap signaling in regulating cardiomyocyte and non-myocyte proliferation and regeneration (Yusuf et al. 2012; Heallen et al. 2011; Morikawa et al. 2017; Leach et al. 2017; von Gise et al. 2012), the ability of bioactive lipids was assessed to promote nuclear accumulation of Yap (FIG. 23). […] Consequently, no increase in nuclear YAP accumulation was observed following bioactive lipid treatment (FIG. 23B).

[8] = tested on: hiPSC-CMs; assay: Wnt receptor ligands on hiPSC-CM expansion and cell-cycle reactivation; settings: day 12 proliferative hiPSC-CMs
Excerpt: Reactivating Wnt signaling may promote proliferation in aged, non-proliferative CMs rather than simply maintain pre-existing proliferation (FIG. 6A). […]

Molecule: Cc1cc(-c2ccc(CC(=O)Nc3ccc(-c4cccnc4)cc3)cc2)ccn1 [C59]
sarcomere organization after C59 [1]: reorganization of their sarcomeres to a state similar to the age-matched control hiPSC-CMs
expression of maturation, excitation, contractility and metabolism markers ([2]; 3 additional weeks after CHIR day 12 to 28, compared with continued CHIR): upregulation of markers associated with cardiomyocyte maturation
MYL2 immunofluorescence staining ([2]; compared with CHIR-treated cells): increase in immunofluorescence staining for MYL2
ki67 expression / proliferation rate [3]: did not result in a decreased rate of hiPSC-CM proliferation

Molecule: NC1(c2ccc(-c3nc4ccn5c(=O)[nH]nc5c4cc3-c3ccccc3)cc2)CCC1 [MK2206]
TCF/LEF luciferase activity ([4]; CHIR and MK2206, 24 hrs): not due to the downregulation of downstream β-catenin signaling
mitotic cells expressing pAKT ([5]; CHIR and MK2206 vs CHIR alone): far fewer mitotic cells
CM replication ([5]; CHIR and MK2206 vs CHIR alone, 6 days): decreased

CHIR-induced activation of TCF/LEF luciferase reporter ([4]; CHIR in the presence of PNU74654, 24 hrs): abolished
Molecule: Cc1ccc(/C=N/NC(=O)c2ccccc2Oc2ccccc2)o1 [PNU74654]
CHIR-induced Wnt target gene expression ([2]; co-treatment with CHIR, qPCR): abolish this increase
markers of hiPSC-CM maturation (MYL2, MYH7, MYOM1) ([2]; co-treatment with CHIR, qPCR): recovered fully
decrease of CHIR-mediated hiPSC-CM proliferation ([5]; CHIR in the presence of PNU74654 vs CHIR alone): ~50%

Molecule: CCCCCCCCc1cccc(NC(=O)[C@H](N)COP(=O)(O)O)c1 [VPC23019]
expression of ki67 in S1P-treated hiPSC-CMs [6]: reduced

Molecule: lysophosphatidic acid [LPA]
YAP nuclear accumulation [7]: No significant (N.S.) increase in YAP nuclear accumulation

B1: Wnt3A: purified Wnt3A protein (R&D systems), Wnt receptor ligand (protein, UniProt P56704 19-352, looked up)
Protein Wnt-3a: SYPIWWSLAVGPQYSSLGSQPILCASIPGLVPKQLRFCRNYVEIMPSVAEGIKIGIQECQHQFRGRRWNCTTVHDSLAIFGPVLDKATRESAFVHAIASAGVAFAVTRSCAEGTAAICGCSSRHQGSPGKGWKWGGCSEDIEFGGMVSREFADARENRPDARSAMNRHNNEAGRQAIASHMHLKCKCHGLSGSCEVKTCWWSQPDFRAIGDFLKDKYDSASEMVVEKHRESRGWVETLRPRYTYFKVPTERDLVYYEASPNFCEPNPETGSFGTRDRTCNVSSHGIDGCDLLCCGRGHNARAERRREKCRCVFHWCCYVSCQECTRVYDVHTCK
CM expansion (TnT positive cell number) [8]: promoted CM expansion
